pEC50, pIC50: −log10 of the molar value. Where a name gives a salt, the structure may show the parent alone.
Experiments:
Human Thrombocytes = test: Fibrinogen Binding to Human Thrombocytes (I125-fibrinogen, gel-filtered platelets); settings: inhibition of I125-fibrinogen binding to gel-filtered human platelets, ADP, 20 minutes, ambient temperature; read-out: Fibrinogen Binding test IC50
Description: 1. Fibrinogen Binding to Human Thrombocytes Blood obtained by puncture of an antecubital vein was anticoagulated with trisodium citrate (final concentration: 13 mM) and centrifuged for 10 minutes at 170 *g. The supernatant platelet-rich plasma was placed on a Sepharose 2B column (Pharmacia) and eluted with a solution of 90 mM common salt, 14 mM trisodium citrate, 5 mM glucose and 50 mM tris(hydroxymethyl)aminomethane, adjusted to pH 7.4. The gel-filtered platelets (GFP) appearing in front of the plasma proteins were used for the binding tests. 50 μl of a 60 mM calcium chloride solution, 50 μl of a 0.6 mM adenosine diphosphate solution, 100 μl of substance solution or solvent and 50 μl of fibrinogen solution (containing 3 μg I125-fibrinogen) were added to 750 μl of GFP and incubated for 20 minutes at ambient temperature. The non-specific binding was measured in the presence of 3 mg/ml of cold fibrinogen. 900 μl of the incubate were carefully pipetted onto 250 μl of silicon oil (AP 38: AR 20, 1:2 v/v, Wacker Chemie) in Eppendorf vessels and centrifuged for 2 minutes at 10,000 *g. The aqueous supernatant and some of the oil were removed, the tip of the vessel with the platelet pellet was cut off and the quantity of bound fibrinogen was measured in a gamma-counter. The concentration of substance which inhibited fibrinogen binding by 50% was calculated from a series of concentrations and given as the IC50.

[1] = tested on: thrombocyte aggregation in platelet-rich plasma; test: Antithrombotic effect: collagen-induced thrombocyte aggregation in platelet-rich plasma (Born and Cross); format: cell-based; settings: human platelet-rich plasma, 10 minutes preincubation at 37° C., read-out: Inhibition of platelet aggregation EC50
Description: 2. Antithrombotic Effect Method: The thrombocyte aggregation was measured in platelet-rich plasma from healthy test subjects using the Born and Cross method (J. Physiol. 170: 397 (1964)). In order to inhibit coaggulation the blood was mixed with 3.14% sodium citrate in a ratio by volume of 1:10. Collagen-induced aggregation: The decrease in the optical density of the platelet suspension was measured photometrically and recorded after the addition of the aggregation-initiating substance. The speed of aggregation was concluded from the angle of inclination of the density curve. The point on the curve at which there was maximum transmittance was used to calculate the optical density. The quantity of collagen used was as little as possible but sufficient to give an irreversible reaction curve. Standard commercial collagen produced by Hormonchemie of Munich was used. Before the addition of collagen the plasma was incubated with the substance for 10 minutes at 37° C. From the measurements obtained, an EC50 was determined graphically, relating to a 50% change in the optical density in terms of inhibiting aggregation.

Row | Compound | pIC50 (Human Thrombocytes) | pEC50 [1]
1 | COC(=O)CC(C)(C)c1ccc(N2CCN(c3ccc(C(=N)N)cc3)C2=O)cc1 [2(47), 1-(4-amidino-phenyl)-3-[4-(3-methoxycarbonyl-2-methyl-2-propyl)-phenyl]-imidazolidin-2-one hydrochloride] | 4.49 | < 4.00
2 | COC(=O)c1ccc(CCN2CCN(c3ccc(C(=N)N)cc3)C2=O)cc1 [2(48), 1-(4-amidino-phenyl)-3-[2-(4-methoxycarbonyl-phenyl)-ethyl]-imidazolidin-2-one] | 4.66 | < 4.00
3 | COC(=O)CCCCN1CCN(c2ccc(C(=N)N)cc2)C1=O [2(71), 1-(4-amidino-phenyl)-3-(4-methoxycarbonyl-butyl)-imidazolidin-2-one hydrochloride] | 4.89 | 4.85
4 | COC(=O)CNCCN1CCN(c2ccc(C(=N)N)cc2)C1=O [2(75), 1-(4-amidino-phenyl)-3-(2-methoxycarbonylmethylamino-ethyl)-imidazolidin-2-one hydrochloride-acetate] | 5.10 | 4.57
5 | COC(=O)CCn1cc(-c2ccc(-c3ccc(C(=N)N)cc3)cc2)[nH]c1=O [2(104), 4-(4'-amidino-4-biphenylyl)-1-(2-methoxycarbonyl-ethyl)-3H-imidazol-2-one hydrochloride] | 5.15 | 5.68
6 | COC(=O)CCn1cc(-c2ccc(-c3ccc(C(=N)N)cc3)cc2)n(C)c1=O [2(105), 4-(4'-amidino-4-biphenylyl)-1-(2-methoxycarbonyl-ethyl)-3-methyl-3H-imidazol-2-one hydrochloride] | 4.55 | 5.96
7 | COC(=O)CCn1cc(-c2ccc(-c3ccc(C(=N)N)cc3)cc2)n(-c2ccccc2)c1=O [2(106), 4-(4'-amidino-4-biphenylyl)-1-(2-methoxycarbonyl-ethyl)-3-phenyl-3H-imidazol-2-one hydrochloride] | 5.57 | 5.18
8 | COC(=O)CCCCn1c(=O)n(-c2ccc(C(=N)N)cc2)c2ncccc21 [2(116), 3-(4-amidino-phenyl)-1-(4-methoxycarbonyl-butyl)-3H-imidazo[4,5-b]pyridin-2-one dihydrochloride] | 4.23 | 4.31
9 | COC(=O)C(Cc1ccc(-n2ccn(-c3ccc(C(=N)N)cc3)c2=O)cc1)N(Cc1ccccc1)Cc1ccccc1 (stereo not drawn) [2(127), 1-(4-amidino-phenyl)-3-[4-(2-dibenzylamino-2-methoxycarbonyl-ethyl)-phenyl]-3H-imidazol-2-one hydrochloride] | 5.25 | 4.74
10 | COC(=O)CCN1CC(c2ccc(-c3ccc(C(=N)N)cc3)cc2)N(c2ccccc2)C1=O (stereo not drawn) [4(9), 4-(4'-amidino-4-biphenylyl)-1-(2-methoxycarbonyl-ethyl)-3-phenyl-imidazolidin-2-one hydrochloride] | 5.59 | 5.02
11 | COC(=O)CCN1CCN(C2CCN(c3ccc(C(=N)N)cc3)CC2)C1=O [4(11), 1-[1-(4-amidino-phenyl)-4-piperidinyl]-3-(2-methoxycarbonyl-ethyl)-imidazolidin-2-one hydrochloride] | 4.35 | 5.64
12 | N=C(N)c1ccc(-c2ccc(C3CN(CCC(=O)O)C(=O)N3c3ccccc3)cc2)cc1 (stereo not drawn) [4(13), 4-(4'-amidino-4-biphenylyl)-1-(2-carboxy-ethyl)-3-phenyl-imidazolidin-2-one hydrochloride] | 7.49 | 6.51
13 | CN1C(=O)N(CCC(=O)O)CC1c1ccc(-c2ccc(C(=N)N)cc2)cc1 (stereo not drawn) [4(14), 4-(4'-amidino-4-biphenylyl)-1-(2-carboxy-ethyl)-3-methyl-imidazolidin-2-one hydrochloride] | 7.39 | 6.70
14 | N=C(N)c1ccc(-c2ccc(C3CN(CCC(=O)O)C(=O)N3)cc2)cc1 (stereo not drawn) [4(15), 4-(4'-amidino-4-biphenylyl)-1-(2-carboxy-ethyl)-imidazolidin-2-one hydrochloride] | 7.38 | 6.52
15 | CN1C(=O)N(c2ccc(CCC(=O)O)cc2)CC1c1ccc(C(=N)N)cc1 (stereo not drawn) [4(16), 4-(4-amidino-phenyl)-1-[4-(2-carboxy-ethyl)-phenyl]-3-methyl-imidazolidin-2-one hydrochloride] | 5.82 | 5.72
16 | N=C(N)c1ccc(N2CCN(c3ccc(CC(N)C(=O)O)cc3)C2=O)cc1 (stereo not drawn) [4(18), 1-(4-amidino-phenyl)-3-[4-(2-amino-2-carboxy-ethyl)-phenyl]-imidazolidin-2-one] | 7.32 | 6.68
17 | COC(=O)CCc1ccc(N2CCN(c3ccc(C(=N)NC(=O)OC)cc3)C2=O)cc1 [5(1), 1-(4-methoxycarbonylamidino-phenyl)-3-[4-(2-methoxycarbonyl-ethyl)-phenyl]-imidazolidin-2-one] | < 4.00 | 4.70
18 | COC(=O)CCc1ccc(N2CCCN(c3ccc(CN)cc3)C2=O)cc1 [8(1), 1-(4-aminomethyl-phenyl)-3-[4-(2-methoxycarbonyl-ethyl)-phenyl]-3,4,5,6-tetrahydro-1H-pyrimidin-2-one hydrochloride] | 4.17 | 4.68
19 | COC(=O)CCc1ccc(N2CCN(c3ccc(CN)cc3)C2=O)cc1 [8(2), 1-(4-aminomethyl-phenyl)-3-[4-(2-methoxycarbonyl-ethyl)-phenyl]-imidazolidin-2-one hydrochloride] | 6.35 | 6.43
20 | COC(=O)C(N)Cc1ccc(N2CCN(c3ccc(CN)cc3)C2=O)cc1 (stereo not drawn) [8(3), 1-[4-(2-amino-2-methoxycarbonyl-ethyl)-phenyl]-3-(4-aminomethyl-phenyl)-imidazolidin-2-one dihydrochloride] | 4.54 | 5.21

The next lines start with the values.

Row | pIC50 (Human Thrombocytes) | pEC50 [1] | Compound
21 | 5.35 | 6.70 | COC(=O)CCc1ccc(N2C(=O)CN(c3ccc(C(=N)N)cc3)C2=O)cc1 [2(53), 1-(4-amidino-phenyl)-3-[4-(2-methoxycarbonyl-ethyl)-phenyl]-imidazolidin-2,4-dione hydrochloride]
22 | 6.19 | 6.49 | COC(=O)CCc1ccc(N2CCN(c3ccc(C(=N)N)cc3)S2(=O)=O)cc1 [2(57), 2-(4-amidino-phenyl)-5-[4-(2-methoxycarbonyl-ethyl)-phenyl]-3,4-dihydro-2H,5H-1,2,5-thiadiazole-1,1-dioxide hydrochloride]
23 | 5.33 | 6.85 | COC(=O)CCc1ccc(-n2ccn(-c3ccc(C(=N)N)cc3)c2=O)cc1 [2(58), 1-(4-amidino-phenyl)-3-[4-(2-methoxycarbonyl-ethyl)-phenyl]-3H-imidazol-2-one hydrochloride]
24 | 4.72 | 5.82 | COC(=O)CCc1ccc(-n2cc(-c3ccc(C(=N)N)cc3)n(C)c2=O)cc1 [2(81), 4-(4-amidino-phenyl)-1-[4-(2-methoxycarbonyl-ethyl)-phenyl]-3-methyl-3H-imidazol-2-one hydrochloride]
25 | 6.28 | 7.10 | COC(=O)CCc1ccc(-n2c(C)cn(-c3ccc(C(=N)N)cc3)c2=O)cc1 [2(115), 1-(4-amidino-phenyl)-3-[4-(2-methoxycarbonyl-ethyl)-phenyl]-4-methyl-3H-imidazol-2-one hydrochloride]
26 | 5.70 | 7.15 | COC(=O)CCc1ccc(-n2c(C)nn(-c3ccc(C(=N)N)cc3)c2=O)cc1 [2(118), 2-(4-amidino-phenyl)-4-[4-(2-methoxycarbonyl-ethyl)-phenyl]-5-methyl-4H-1,2,4-triazol-3-one hydrochloride]
27 | 6.55 | 7.40 | CCc1nn(-c2ccc(C(=N)N)cc2)c(=O)n1-c1ccc(CCC(=O)OC)cc1 [2(119), 2-(4-amidino-phenyl)-5-ethyl-4-[4-(2-methoxycarbonyl-ethyl)-phenyl]-4H-1,2,4-triazol-3-one hydrochloride]
28 | 5.51 | 7.15 | COC(=O)CCc1ccc(-n2cnn(-c3ccc(C(=N)N)cc3)c2=O)cc1 [2(123), 2-(4-amidino-phenyl)-4-[4-(2-methoxycarbonyl-ethyl)-phenyl]-4H-1,2,4-triazol-3-one hydrochloride]
29 | 5.10 | 4.51 | COC(=O)CCc1ccc(-n2ccn(-c3ccc(C(=N)NC(=O)OC)cc3)c2=O)cc1 [5(8), 1-(4-methoxycarbonylamidino-phenyl)-3-[4-(2-methoxycarbonyl-ethyl)-phenyl]-3H-imidazol-2-one]
30 | < 5.00 | 4.62 | COC(=O)CCc1ccc(N2C(=O)CN(c3ccc(C(=N)NC(=O)OC)cc3)C2=O)cc1 [5(13), 1-(4-methoxycarbonylamidino-phenyl)-3-[4-(2-methoxycarbonyl-ethyl)-phenyl]-imidazolidin-2,4-dione]
